According to US11464785B2, “Treatment of addiction and impulse-control disorders using PDE7 inhibitors” (priority 2010, dated 2022):

How the values were obtained:
[1] = system: dopamine release in the nucleus accumbens; experiment: In vivo microdialysis of dopamine release in the nucleus accumbens; design: species or system Male Wistar rats; conditions: nicotine 0.4 mg/kg sc
Experimental: Male Wistar rats (Harlan, Italy) weighing 275-300 g were housed in groups of six per cage with standard food (Morini, Italy) and water ad libitum, for at least five days in the central animal room under constant temperature (23° C.), humidity (60%) and a 12 hour light/dark cycle (light from 8 a.m. to 8 p.m.).
Concentric dialysis probes with a dialysing portion of 1.5 mm were prepared with AN69 (acrylonitrile sodium methallyl sulfonate copolymer) dialysis fiber (310 μm o.d. 220 μm i.d. Hospal, Dasco, Italy), according to the method of De Luca et al. (2007). Rats were anaesthetized with chloral hydrate (400 mg/kg i.p.) and placed in a stereotaxic apparatus. The scalp was incised and the skull leveled between lambda and bregma. […] Samples from each of the NAc shell and core were taken every 10 or 20 minutes (depending on the experiments) and analyzed.
Dialysate samples (10 or 20 μl) were injected into an HPLC equipped with a reverse phase column (C8 3.5 um, Waters, Mildford, Mass., USA) and a coulometric detector (ESA, Coulochem II, Bedford, Mass.) to quantify DA. […]
NAc shell and core dialysate DA was monitored for at least three hours. […] Dialysate DA was monitored for at least three hours after nicotine treatment.

dopaminergic VTA neurons = experiment: Whole-cell current clamp recordings from rat VTA horizontal slices; type: cell-based
Source text: The reinforcing effects of nicotine are believed to result from its activation of dopaminergic neurons in the ventral tegmental area (VTA) (Pidoplichko V I et al., Nature 390:401-404 (1997); Liu L, et al., Nicotine persistently activates ventral tegmental area dopaminergic neurons via nicotinic acetylcholine receptors containing α4 and α6 subunits. Mol Pharmacol, 81(4):541-8 (2012)). The inventors sought to evaluate the anti-addictive potential of PDE7 inhibitors by studying their ability to modify basal and drug of abuse-induced changes in VTA dopamine activity by performing whole-cell current clamp recordings from rat VTA horizontal slices ex vivo. For this purpose nicotine was used as an example of drugs of abuse.
Dopaminergic neurons were identified by the presence of a large hyperpolarizing current. Johnson, S. W., et al., “Opioids excite dopamine neurons by hyperpolarization of local interneurons,”J. Neurosci 12:483-488 (1992).
An additional electrophysiology study was completed to evaluate the effect of the PDE7 inhibitor OMS182399 on VTA DA neuronal activity in the setting of cocaine, morphine or alcohol. The preparation of VTA slices was as described above in Example 8.
Drug-induced changes in firing rate were calculated by averaging the effects after drug administration (five minutes) and normalizing to the pre-drug baseline. All the numerical data are given as mean±s.e.m. Data were compared and analyzed by utilizing two-way ANOVA for repeated measures (treatment×time), or Student's t-test for repeated measures, when appropriate. Statistical analysis was performed by means of the GraphPad Prism program. The significance level was established at P<0.05.
The acute effect of OMS182399 was investigated on dopamine neurons of the VTA in a rat horizontal brain slice preparation containing the midbrain. Whole-cell current-clamp recordings were performed from VTA dopamine neurons.

open field activity = experiment: Open field activity model; type: in vivo, wild type C57BL/6 mice; conditions: C57BL/6 mice; SKF82958 1 mg/kg; FIG. 36
Experimental: In order to assess the ability of PDE7 inhibitors to enhance DRD1 signaling in vivo, the effects of the PDE7 inhibitor OMS182401 and the DRD1 agonist SKF82958, alone and in combination, were evaluated in an open field activity model using wild type C57BL/6 mice.

[2] = system: rat model of cocaine addiction; type: in vivo, rats
Experimental: PDE7 inhibitors and DRD1 agonists were next tested for their effect on cocaine priming-induced relapse. Rats were trained to self-administer cocaine, as above, and were then exposed to extinction conditions. Cocaine was replaced with saline solution. […] Rats were treated with vehicle or agent and ten minutes later were administered cocaine. Lever pressing was counted for one hour following cocaine administration. […] Once again, administration of PDE7 inhibitors and dopamine D1 agonist had very different results in cocaine addicted animals.

[3] = system: rat model of cocaine addiction
Experimental: Cocaine hydrochloride (obtained from the National Institute on Drug Abuse, Bethesda, Md.) was dissolved in sterile physiological saline at a concentration of 0.25 mg/0.1 mL. Drug or vehicle solution was infused at a volume of 0.1 mL over 4 seconds. […] OMS182401 was given intraperitoneally.
Male Wistar rats weighing between 180 and 200 g at the time of arrival in the lab were used. The rats were housed in groups of three in a humidity—(45-55%) and temperature-controlled (22 degrees C.) vivarium on a 12 h: 12 h reverse light/dark cycle (on, 17:00; off, 05:00) with ad libitum access to food and water. Experiments were conducted during the dark phase of the light/dark cycle. One week after arrival, rats were subjected to surgery, and a silastic catheter was implanted into the right jugular vein. The experimental stations consisted of operant conditioning chambers (Med Associate Inc.) enclosed in sound-attenuating, ventilated environmental cubicles. Cocaine was delivered by a plastic tube connected to the catheter before the beginning of the session. […] An IBM-compatible computer controlled the delivery of fluids and recording of the behavioral data.
Cocaine self-administration training continued until a stable baseline of responding was reached (less than 10% variation for 3 consecutive days calculated for each single rat). At this point, drug testing began.
Rats were treated with PDE7 inhibitors (0.0, 0.3, 1.0 and 3.0 mg/kg) given i.p. 12 hours and 1 hour before the beginning of the self-administration session. […] A 3-day interval was allowed between drug testing. During these intervals, cocaine self-administration was continued to re-establish baseline lever responses.
Cocaine self-administration training continued until a stable baseline of responding was reached (less than 10% variation for 3 consecutive days calculated for each single rat). At this point, drug testing began. The animals were injected with vehicle or drug 15 minutes before the test session.
In order to test the effect of raising cAMP levels through activation of DRD1 on cocaine self-administration, the DRD1 agonist SKF82958 was administered i.p. to rats trained to self-administer cocaine. […] SKF82958 was administered at 1.0 mg/kg. […] The long-access model was not evaluated in this case.
Rats were surgically implanted with jugular catheters and allowed to recover for one week. Animals then underwent daily six-hour (long-access) training sessions in which each press of the active lever triggered delivery of 0.25 mg cocaine. After one week, the ratio was increased so that five lever presses were required to receive the same amount of cocaine. The animal training continued for about six weeks. […] Reinforced responses were assessed over two hour periods.

[4] = system: rat model of cocaine addiction; conditions: in vivo
binge eating model = experiment: Stress-induced binge eating of highly palatable food (HPF); type: in vivo, female rats; conditions: topiramate 60 mg/kg i.p.
Source text: To mimic binge eating disorder in laboratory animals, a binge eating model was developed where binge eating is elicited by yo-yo dieting and stressful exposure to Highly Palatable Food (HPF). In this model, female rats are exposed to repeated cycles of restriction and a stressful procedure characterized by exposure of animals to HPF without the possibility of accessing it. This procedure elicits a selective increase of highly palatable food intake that is overconsumed during a very short period of time. As described below, using this model, endowed with significant predictive and face validity, the effect of PDE7 inhibitors on binge eating (one of the most significant forms of food addiction) was investigated.
Reinstatement of binge eating behavior has been obtained in experimental animals through a combination of repeated food restriction and stress. [Cifani et al, Psychopharmacology 204:113-125 (2009)]. For the present invention, stress-induced binge eating was tested as in Cifani.
Rats were housed in individual cages and were given chow and water ad libitum for two weeks prior to the experiment. […]
After one hour, animals were given HPF and ad libitum chow. Intake of HPF was measured after two hours.

CN1CCC[C@H]1c1cccnc1 [nicotine]
DA release in the NAc shell [1]: increases DA release in the NAc shell

CCO [Ethanol]
firing rate of VTA DA cells (dopaminergic VTA neurons; Ethanol 100 mM, 5 min, n=6): 158.3±26.7 % of basal firing rate

Br.C=CCN1CCc2c(cc(O)c(O)c2Cl)C(c2ccccc2)C1 (racemic) [SKF82958, (±)-6-Chloro-7,8-dihydroxy-3-allyl-1-phenyl-2,3,4,5-tetrahydro-1H-3-benzazepine hydrobromide]
nicotine-induced activation of VTA neurons, single agents at low concentration (dopaminergic VTA neurons; 30 nM OMS182401 alone or 1 uM SKF82958 alone): ineffective
spontaneous firing rate of dopaminergic VTA neurons (dopaminergic VTA neurons; OMS182401, SKF82958 at 3.0 and 10.0 uM, FIG. 29A): a similar effect was observed
open-field activity, single agents (open field activity): stimulated open-field activity at 1 mg/kg
behavior of treated animals in cocaine priming test ([2]; rat, in vivo): exhibited significantly abnormal behavior
cocaine priming-induced lever pressing ([2]; rats, agent ten minutes before cocaine, lever pressing for one hour, FIGS. 13 and 14): significantly reduced lever pressing induced by cocaine priming
behavior of animals given the agent with cocaine ([3]; rat, in vivo, ip): exhibited significantly abnormal behavior and were extremely aggressive
cocaine self-administration, short-access model ([3]; rats, 2-hour sessions, OMS182401 15 minutes before session (FIG. 3), SKF82958 1.0 mg/kg i.p. (FIG. 4)): significantly reduced cocaine self-administration in the short-access model
cocaine self-administration, first hour after treatment ([3]; rats, short-access, i.p.): a significant reduction in self-administration was observed at both doses
cocaine self-administration, two hours after treatment ([3]; rats, short-access, i.p.): the trend of self-administration reduction was non-significant
lever pressing when administered on its own (addictive properties) [4]: Neither agent caused increased lever pressing

COC(=O)[C@H]1[C@@H](OC(=O)c2ccccc2)C[C@@H]2CC[C@H]1N2C [cocaine]
firing rate of VTA DA cells (dopaminergic VTA neurons; cocaine 1 μM, 5 min, n=7): 36.4±9.1 % of basal firing rate

CN1CC[C@]23c4c5ccc(O)c4O[C@H]2[C@@H](O)C=C[C@H]3[C@H]1C5 [morphine]
firing rate of VTA DA cells (dopaminergic VTA neurons; morphine, 3 min, n=7): 224.4±19.5 % of basal firing rate

CC1(C)O[C@@H]2[C@@H](CO[C@@]3(COS(N)(=O)=O)OC(C)(C)O[C@@H]23)O1 [Topiramate]
times of observation at which HPF intake was reduced, R+S group, highest dose (binge eating model; OMS182056 3 mg/kg i.p., p<0.05): evident at all the times of observation
HPF intake, restricted and stressed (R+S) group (binge eating model; rats, two hours, OMS182401 3.0 mg/kg i.p., OMS182056 1.0 and 3.0 mg/kg i.p., FIGS. 23D, 24D, 25D): reduced HPF intake only in the R+S group
